# Data from patent US11866518B2, “Bicyclic peptide ligands specific for TSLP” (BicycleTx Limited, priority 2020, dated 2024).
# *1 amine or outer side, *2 acyl side, *3 side chain or, on linkers, in order; H or OH if unused. Where a SMILES comes first, the peptide text is derived from it. Bridges are numbered along the chain shown (N, C = ends). TATA = O=C(CC[*:1])N1CN(C(=O)CC[*:2])CN(C(=O)CC[*:3])C1
# Molecular target: T1, TSLP (Homo sapiens, UniProt Q969D9)
# Assay: Human TSLP Surface Plasmon Resonance (SPR) binding assay
# Design: The resulting construct spCD33-6×HN-TEV-hTSLP(29-159)-Avi; 6xHN tag with TEV site (N, cleaved yes); made in house; host or cells: Expi293F cells
# Conditions: biotinylated human TSLP immobilized on streptavidin chip; 20° C.; steady-state or kinetic 1:1 fit; read-out: hTSLP SPR Kd
# T1 sequence (Q969D9 29-159): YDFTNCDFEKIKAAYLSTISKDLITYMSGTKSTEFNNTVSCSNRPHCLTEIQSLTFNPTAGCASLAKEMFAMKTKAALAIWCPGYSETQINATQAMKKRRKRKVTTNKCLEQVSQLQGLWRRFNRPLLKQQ
row,Structure (SMILES),Kd [nM]
1,"CC(C)C[C@@H]1NC(=O)[C@H](Cc2c[nH]c3ccccc23)NC(=O)[C@H](Cc2c[nH]c3ccccc23)NC(=O)[C@H]([C@@H](C)O)NC(=O)[C@H](CCC(=O)O)NC(=O)[C@@H]2CSCCC(=O)N3CN(CN(C3)C(=O)CCSC[C@H](N)C(=O)N[C@@H]([C@@H](C)O)C(=O)N[C@@H](CCC(=O)O)C(=O)N[C@@H](CC(C)C)C(=O)N[C@@H](CC(=O)O)C(=O)N3CC(F)(F)C[C@H]3C(=O)N[C@@H](Cc3c[nH]c4ccccc34)C(=O)N[C@@H]([C@@H](C)O)C(=O)N2)C(=O)CCSC[C@@H](C(N)=O)NC1=O [Example 182, (SEQ ID NO: 133)]",1300
2,"CC(C)C[C@@H]1NC(=O)[C@H](Cc2c[nH]c3ccccc23)NC(=O)[C@@H]2CSCCC(=O)N3CN(CN(C3)C(=O)CCSC[C@H](NC(=O)[C@@H]3CCCN3C(=O)[C@@H]3CCCN3C(=O)[C@H](CCC(=O)O)NC(=O)[C@@H](NC(=O)[C@@H]3CCCN3C(=O)[C@@H](N)CO)[C@@H](C)O)C(=O)N[C@@H](CC(=O)O)C(=O)N[C@@H](Cc3c[nH]c4ccccc34)C(=O)N[C@@H](Cc3c[nH]cn3)C(=O)N[C@@H](Cc3c[nH]c4ccccc34)C(=O)N[C@@H](CCC(=O)O)C(=O)N[C@@H](Cc3ccc(O)cc3)C(=O)N[C@@H](CC(=O)O)C(=O)N2)C(=O)CCSC[C@@H](C(N)=O)NC(=O)[C@H](CO)NC1=O [Example 215, SPTEPP-(SEQ ID NO: 144)]",240
3,"CC[C@H](C)[C@@H]1NC(=O)[C@H](Cc2c[nH]c3ccccc23)NC(=O)[C@@H]2CSCCC(=O)N3CN(CN(C3)C(=O)CCSC[C@@H](C(=O)N[C@@H](C)C(N)=O)NC(=O)[C@H](CC(C)C)NC(=O)[C@H]([C@@H](C)O)NC(=O)[C@H](CCCCN)NC(=O)[C@H](Cc3ccccc3)NC1=O)C(=O)CCSC[C@H](NC(=O)[C@H](C)N)C(=O)N[C@@H](CC(=O)O)C(=O)N[C@@H](CCC(=O)O)C(=O)N[C@@H](CC(C)C)C(=O)N[C@@H](CC(=O)O)C(=O)N[C@@H]([C@@H](C)CC)C(=O)N1CCC[C@H]1C(=O)N2 [Example 232, A-(SEQ ID NO: 159)-A] (H-ACDELDIPCWIFKTLCA-NH2; linker 2-9-16 via TATA; N-terminus and C-terminus assumed)",8300
4,"CC(C)C[C@@H]1NC(=O)[C@H](Cc2c[nH]c3ccccc23)NC(=O)[C@H](CCC(N)=O)NC(=O)[C@@H](N)CSCCC(=O)N2CN3CN(C2)C(=O)CCSC[C@H](NC(=O)[C@H](CC(=O)O)NC(=O)[C@H](CCC(=O)O)NC1=O)C(=O)N[C@@H](Cc1c[nH]c2ccccc12)C(=O)N[C@@H](CCCNC(N)=O)C(=O)NCC(=O)N[C@@H](Cc1ccccc1)C(=O)N[C@H](C(N)=O)CSCCC3=O [Example 102, (SEQ ID NO: 76)]",170
5,"CC(C)C[C@@H]1NC(=O)[C@H](CO)NC(=O)[C@@H](NC(=O)[C@H](C)N)CSCCC(=O)N2CN3CN(C2)C(=O)CCSC[C@@H](C(=O)N[C@@H](C)C(N)=O)NC(=O)[C@H]([C@@H](C)O)NC(=O)[C@H](Cc2c[nH]c4ccccc24)NC(=O)[C@H](Cc2c[nH]c4ccccc24)NC(=O)[C@H](CC(N)=O)NC(=O)[C@H](Cc2c[nH]cn2)NC(=O)[C@H](CSCCC3=O)NC(=O)[C@H](CO)NC(=O)[C@H](Cc2c[nH]c3ccccc23)NC(=O)[C@@H]2CCCN2C(=O)[C@H](CC(=O)O)NC1=O [Example 229, A-(SEQ ID NO: 156)-A] (H-ACSLDPWSCHNWWTCA-NH2; linker 2-9-15 via TATA; N-terminus and C-terminus assumed)",9900
6,"CSCC[C@@H]1NC(=O)[C@H](Cc2c[nH]c3ccccc23)NC(=O)[C@H](CCCCN)NC(=O)[C@@H](NC(=O)[C@@H](NC(=O)[C@H](CCC(=O)O)NC(=O)[C@H](C)N)[C@@H](C)O)CSCCC(=O)N2CN3CN(C2)C(=O)CCSC[C@H](NC(=O)[C@H](CC(=O)O)NC(=O)[C@H](Cc2ccc(O)cc2)NC(=O)[C@H](CCC(=O)O)NC(=O)[C@H](Cc2c[nH]c4ccccc24)NC1=O)C(=O)N[C@@H](Cc1c[nH]c2ccccc12)C(=O)N[C@@H](CC(C)C)C(=O)N[C@@H](CO)C(=O)N[C@H](C(=O)N[C@@H](C)C(N)=O)CSCCC3=O [Example 204, AET-(SEQ ID NO: 149)-A] (H-AETCKWMWEYDCWLSCA-NH2; linker 4-12-16 via TATA; N-terminus assumed)",100
7,"CC(C)C[C@@H]1NC(=O)[C@H](Cc2c[nH]c3ccccc23)NC(=O)[C@@H]2CSCCC(=O)N3CN(CN(C3)C(=O)CCSC[C@H](NC(=O)[C@H](CCC(=O)O)NC(=O)[C@H](Cc3c[nH]cn3)NC(=O)[C@H](Cc3c[nH]cn3)NC(=O)[C@H](CCC(N)=O)NC(=O)[C@H](CCC(=O)O)NC(=O)[C@@H](N)CC(=O)O)C(=O)N[C@@H](CC(=O)O)C(=O)N[C@@H](Cc3c[nH]c4ccccc34)C(=O)N[C@@H](Cc3c[nH]cn3)C(=O)N[C@@H](Cc3c[nH]c4ccccc34)C(=O)N[C@@H](CCC(=O)O)C(=O)N[C@@H](Cc3ccc(O)cc3)C(=O)N[C@@H](CC(=O)O)C(=O)N2)C(=O)CCSC[C@@H](C(=O)N[C@@H](C)C(N)=O)NC(=O)[C@H](CO)NC1=O [Example 209, DEQHHE-(SEQ ID NO: 144)-A]",910
8,"CC(=O)N[C@H]1CSCCC(=O)N2CN3CN(C2)C(=O)CCSC[C@H](NC(=O)[C@H](CC(=O)O)NC(=O)[C@H](Cc2ccc(O)cc2)NC(=O)[C@H](CCC(=O)O)NC(=O)[C@H](Cc2c[nH]c4ccccc24)NC(=O)[C@H](Cc2c[nH]cn2)NC(=O)[C@H](Cc2c[nH]c4ccccc24)NC(=O)[C@H](CC(=O)O)NC1=O)C(=O)N[C@@H](Cc1c[nH]c2ccccc12)C(=O)N[C@@H](CC(C)C)C(=O)N[C@@H](CO)C(=O)N[C@H](C(N)=O)CSCCC3=O [Example 218, Ac-(SEQ ID NO: 144)]",2000
9,"CSCC[C@H](NC(=O)[C@H](CC(=O)O)NC(=O)CNC(=O)[C@@H]1CSCCC(=O)N2CN3CN(C2)C(=O)CCSC[C@H](N)C(=O)N[C@@H](CC(=O)O)C(=O)N[C@@H](Cc2c[nH]c4ccccc24)C(=O)N[C@@H](Cc2c[nH]cn2)C(=O)N[C@@H](Cc2c[nH]c4ccccc24)C(=O)N[C@@H](CCC(=O)O)C(=O)N[C@@H](Cc2ccc(O)cc2)C(=O)N[C@@H](CC(=O)O)C(=O)N[C@@H](CSCCC3=O)C(=O)N[C@@H](Cc2c[nH]c3ccccc23)C(=O)N[C@@H](CC(C)C)C(=O)N[C@@H](CO)C(=O)N1)C(=O)N[C@@H](CO)C(=O)N[C@H](C(=O)N[C@@H](CO)C(N)=O)C(C)C [Example 222, (SEQ ID NO: 144)-GDMSVS]",450
10,"CC(=O)N[C@H]1CSCCC(=O)N2CN3CN(C2)C(=O)CCSC[C@H](NC(=O)[C@H](CC(=O)O)NC(=O)[C@H](CCC(=O)O)NC(=O)[C@H](CC(C)C)NC(=O)[C@H](Cc2c[nH]c4ccccc24)NC(=O)[C@H](CCC(N)=O)NC1=O)C(=O)N[C@@H](Cc1c[nH]c2ccccc12)C(=O)N[C@@H](CCCNC(=N)N)C(=O)NCC(=O)N[C@@H](CCc1ccccc1)C(=O)N[C@H](C(N)=O)CSCCC3=O [Example 148, Ac-(SEQ ID NO: 107)]",1100
11,"CC(C)C[C@@H]1NC(=O)[C@H](Cc2c[nH]c3ccccc23)NC(=O)[C@H](CCC(N)=O)NC(=O)[C@@H](NC(=O)[C@H](C)N)CSCCC(=O)N2CN3CN(C2)C(=O)CCSC[C@H](NC(=O)[C@H](CC(=O)O)NC(=O)[C@H](CCC(=O)O)NC1=O)C(=O)N[C@@H](Cc1c[nH]c2ccccc12)C(=O)N[C@@H](CCCNC(=N)N)C(=O)NCC(=O)N[C@@H](Cc1ccccc1)C(=O)N[C@H](C(=O)N[C@@H](CC(=O)O)C(=O)N[C@@H](CC(=O)O)C(=O)N[C@@H](C)C(=O)N[C@@H](Cc1c[nH]cn1)C(=O)N[C@@H](C)C(=O)N1CCC[C@H]1C(N)=O)CSCCC3=O [Example 55, A-(SEQ ID NO: 38)-DDAHAP]",47
12,"CC(C)C[C@@H]1NC(=O)[C@H](Cc2c[nH]c3ccccc23)NC(=O)[C@H](CCC(N)=O)NC(=O)[C@@H](N)CSCCC(=O)N2CN3CN(C2)C(=O)CCSC[C@H](NC(=O)[C@H](CC(=O)O)NC(=O)[C@H](CCC(=O)O)NC1=O)C(=O)N[C@@H](Cc1c[nH]c2ccccc12)C(=O)N[C@@H](CCCNC(=N)N)C(=O)NCC(=O)N[C@@H](Cc1ccc(F)cc1)C(=O)N[C@H](C(=O)O)CSCCC3=O [Example 48, (SEQ ID NO: 15)-COOH]",33

# Molecular target: T1, TSLP
# Assay: Human peripheral blood mononuclear cell assay (TSLP-induced CCL17/TARC)
# Format: cell-based
# Design: host or cells: added to human PBMCs from healthy donors
# Conditions: read-out: CCL17 % Inhibition @ 10 μM, […] TSLP
# Experimental: Human peripheral blood mononuclear cells (PMBCs) were obtained from heparinized whole blood (healthy donors) by density gradient centrifugation using Lymphoprep (StemCell Technologies, Vancouver, BC) according to the manufacturers instructions. The PBMCs were washed twice with PBS containing 2 mM EDTA and 2% fetal calf serum (FCS) and reconstituted in RPMI containing 10% FCS and 2% PenStrep at a final concentration of 3 million cells/mL. This cell suspension (100 μL) was aliquoted into the wells of a 96-well flat bottom tissue culture plate. 5 μL of bicycle peptide or vehicle (0.1% DMSO in complete medium) was then added and mixed with 5 μL of TSLPvehicle (complete medium). […] The plate was incubated for 30 minutes are rt. 10 μL of this mixture was added to cells and the plate was incubated for 24 hours in a 10% CO2, humidified incubator at 37° C. The plate was centrifuged at 300×g for 5 min and the collected supernatants frozen at −20° C. for subsequent CCL17/TARC analysis.
# CCL17/TARC was determined by MSD (MesoScale Discovery, Maryland, USA) according to the manufacturer's instructions.
row,Structure (SMILES),inhibition at 10 µM [%]
1,"CC(C)C[C@@H]1NC(=O)[C@H](Cc2c[nH]c3ccccc23)NC(=O)[C@H]([C@@H](C)O)NC(=O)[C@@H](NC(=O)[C@H](C)N)CSCCC(=O)N2CN3CN(C2)C(=O)CCSC[C@H](NC(=O)[C@H](CC(=O)O)NC(=O)[C@H](CC(=O)O)NC1=O)C(=O)N[C@@H](Cc1c[nH]c2ccccc12)C(=O)N[C@@H](CCCNC(=N)N)C(=O)NCC(=O)N[C@@H](Cc1ccccc1)C(=O)N[C@H](C(=O)N[C@@H](C)C(N)=O)CSCCC3=O [Example 76, A-(SEQ ID NO: 57)-A] (H-ACTWLDDCWRGFCA-NH2; linker 2-8-13 via TATA; N-terminus and C-terminus assumed)",0
